Structures are written as SMILES. Where a name gives a salt, the structure may show the parent alone. Read-outs that look alike come from different tables or passages of the source. Where only a bound is given, the exact number is not on record here.

The subject of series [1] is U2OS-Nuc cell line. The series can be described thus: Live cell imaging, pilot experiment. Conditions: 10 µM, 1 h incubation. Format: cell-based, human. As for the experimental part: U2OS cell line (ATCC, USA) was transduced with premade lentiviral particles (Vectalis-TaKaRa, Japan) with sequences that express fluorescent protein tag mCherry targeted to specific subcellular locations. All cell lines were prepared according to the vendor’s instructions. The U2OS-Nuc cell line was prepared by using rLV.EF1.mCherry-Nuc-9 (cat. n. 0023VCT), containing a NLS sequence that imports protein into the nucleus. The U2OS-ER cell line was transduced by rLV.EF1.mCherry-ER-9 (cat. n. 0025VCT), which contains a calreticulin signal sequence and a KDEL sequence that associates protein with the endoplasmic reticulum. The U2OS-GA cell line was transduced by rLV.EF1.mCherry-Golgi-9 (cat. n. 0022VCT), containing a human GT precursor, a protein localized in Golgi Apparatus. The U2OS-Mito cell line was prepared by using rLV.EF1.mCherry-Mito-9 (cat. n. 0024VCT), containing a mitochondrial targeting sequence.
U2OS cells with fluorescent fusion proteins (density 1.0 × 10^3 per well) were seeded into 384 CellCarrier plates (Perkin Elmer, Waltham, MA, USA) and pre-incubated for 24 h at 37 °C and 5% CO2. The attached cells were treated with tested compounds in concentration 10 µM for 1 h and subsequently rinsed with fresh media. The live-cell imaging was performed by Cell Voyager CV7000 (Yokogawa, Tokyo, Japan) spinning disc confocal microscopy system at 37 °C in a 5% CO2 atmosphere. Live cells were monitored by a 60 × water immersion objective. The fluorescent signal was excited by lasers (405 nm and 561 nm) and the emission was filtered by bandpass filters (BP 445/45 and BP 595/20). All images were post-processed, and Pearson’s and Mander’s coefficients were calculated using the JACoP plugin in Image-J software.

For series [2], the system named is CCRF-CEM. Briefly: MTS cytotoxicity assay, CCRF-CEM. In kind it is cell-based. The conditions noted are these: Homo sapiens, 72 h, 3-day incubation. From the text:
(§1) All cells (if not indicated otherwise) were purchased from the American Tissue Culture Collection (ATCC; Manassas, VA, USA). The highly chemosensitive CCRF-CEM line is derived from T lymphoblastic leukaemia, K562 represent cells of chronic myelogenous leukaemia. Colorectal adenocarcinoma HCT116 cell line and its p53 gene knockout counterpart (HCT116p53−/−, Horizon Discovery Ltd., Cambridge, UK) were used as models to assess the impact of p53 deficiency on cell line sensitivity. A549 cells are derived from lung adenocarcinoma and U2OS from human osteosarcoma. CEM-DNR and K562-Tax are well-characterized daunorubicin and paclitaxel-resistant sublines of CCRF-CEM and K562. The CEM-DNR resistant cells overexpress the P-glycoprotein and LRP protein, the K562-Tax overexpress P-glycoprotein but is losing the expression of LRP, which is present at parental K562 cell line. P-glycoprotein belongs to the ABC transporters’ family and is involved in the primary and acquired multidrug resistance phenomenon by the efflux of toxic compounds, LRP protein is involved in the lysosomal degradation. MRC-5 and BJ cell lines were used as a non-tumour control and represent human fibroblasts. The cells were maintained in Nunc/Corning 80 cm^2 plastic tissue culture flasks and cultured in cell culture medium according to ATCC or Horizon recommendations (DMEM/RPMI 1640 with 5 g/L-glucose, 2 mM glutamine, 100 U/mL penicillin, […] streptomycin, 10% fetal calf serum, and NaHCO3).
(§2) To perform the cytotoxicity MTS assay, cell suspensions were prepared and diluted according to the cell type and the expected target cell density (25,000–35,000 cells/mL) based on cell growth characteristics. Cells were added by an automatic pipettor (30 μL) into 384 well microtiter plates. All tested compounds were dissolved in 100% DMSO and four-fold dilutions of the intended test concentration were added in 0.15 μL aliquots at time zero to the microtiter plate wells by the echo-acoustic liquid handler Echo550 (Labcyte, San Jose, CA, USA). The experiments were performed in technical duplicates and at least three biological replicates. The cells were incubated with the tested compounds for 72 h at 37 °C, in a 5% CO2 atmosphere at 99% humidity. At the end of the incubation period, the cells were assayed by using the MTS test. Aliquots (5 µL) of the MTS stock solution were pipetted into each well and incubated for an additional 1–4 h. After this incubation period, the optical density (OD) was measured at 490 nm with an Envision microplate reader (Perkin Elmer, Waltham, Massachusetts, USA). Tumour cell survival (TCS) was calculated using the following equation: TCS = (ODdrug-exposed well/mean ODcontrol wells) × 100%.
For orientation: Formazan colour is commonly taken as a measure of viable cells.

For series [3], the system named is CEM-DNR. Briefly: MTS cytotoxicity assay, CEM-DNR. In kind it is cell-based. The conditions noted are these: Homo sapiens, 72 h, CEM-DNR (daunorubicin resistant), 3-day incubation.
From the text: as §1, §2

The subject of series [4] is K562. The series can be described thus: MTS cytotoxicity assay, K562. Format: cell-based. The conditions noted are these: Homo sapiens, 72 h, 3-day incubation.
From the text: as §1, §2

Series [5] concerns K562-Tax. Briefly: MTS cytotoxicity assay, K562-Tax. In kind it is cell-based. The conditions noted are these: Homo sapiens, 72 h, K562-Tax (paclitaxel-resistant), 3-day incubation.
From the text: as §1, §2

The subject of series [6] is A549. The series can be described thus: MTS cytotoxicity assay, A549. The conditions noted are these: Homo sapiens, 72 h, 3-day incubation. In kind it is cell-based.
From the text: as §1, §2

Series [7] deals with HCT116. Briefly: MTS cytotoxicity assay, HCT116. In kind it is cell-based. The conditions noted are these: Homo sapiens, HCT-116, 72 h, 3-day incubation.
From the text: as §1, §2

Series [8] concerns HCT116p53−/−. Briefly: MTS cytotoxicity assay, HCT116p53−/−. Format: cell-based. Conditions: Homo sapiens, HCT116-p53-null, 72 h, HCT116p53−/− (null p53 gene), 3-day incubation.
From the text: as §1, §2

The subject of series [9] is U2OS. Briefly: MTS cytotoxicity assay, U2OS. Conditions: Homo sapiens, 72 h, 3-day incubation. Format: cell-based.
From the text: as §1, §2

Series [10] concerns MRC-5. Briefly: MTS cytotoxicity assay, MRC-5. In kind it is cell-based. Conditions: Homo sapiens, MRC5, 72 h, MRC-5 normal fibroblasts, 3-day incubation.
From the text: as §1, §2

Series [11] concerns BJ. Briefly: MTS cytotoxicity assay, BJ. Format: cell-based. Conditions: Homo sapiens, 72 h, BJ normal fibroblasts, 3-day incubation.
From the text: as §1, §2

In series [12] the test system is CCRF-CEM lymphoblasts. Briefly: BrDU incorporation analysis (DNA synthesis). Conditions: 24 h incubation. Format: cell-based, human. How it is done:
Cells were cultivated as in the method above and pulse-labelled with 10 μM 5-bromo-2-deoxyuridine (BrDU) for 30 min before collection to the test tubes. The cells were washed with cold 1 × PBS and fixed in ice-cold 70% ethanol. Before analysis, they were washed with 1 × PBS and incubated in 2M HCl for 30 min at room temperature. Following neutralization with 0.1M Na2B4O7 (borax), the cells were washed with 0.5% Tween-20 and 1% BSA in 1 × PBS. The cell pellets were stained using a primary anti-BrdU antibody (Exbio, Vestec, Czech Republic) for 30 min at room temperature and a secondary anti-mouse-FITC antibody (Sigma). The samples were then incubated with propidium iodide (0.1 mg mL^−1), treated with RNase A (0.5 mg mL^−1) for 1 h at room temperature in the dark and analysed as above.

Series [13] has as its system CCRF-CEM lymphoblasts. The series can be described thus: BrU incorporation analysis (RNA synthesis). Format: cell-based, human. Conditions: 24 h, 5 × IC50 (high concentration).
For series [14], the system named is CA-SP1 processing of HIV-1 Gag polyprotein. Briefly: Western blot of released virions with anti-HIV-1 CA antibody. In kind it is cell-based.
Series [15] relates to entire cell line panel.
Series [16] can be described thus: in vitro. Conditions: human.
In series [17] the test system is VSV-G pseudotyped HIV-1 particles. Briefly: microbe, parasite or virus in culture. In kind it is cell-based. The conditions noted are these: read-out: IC50i (50% infection inhibition).
The mark [18] stands for this setting: Human immunodeficiency virus 1, HEK293, 48 h.

In the case of `O=C(O)CCNC1=C2C=CC=[N+]2[B-](F)(F)n2cccc21` [BODIPY-CO2H, 8-N-(β-Alanyl)amino-4,4-difluoro-4-bora-3a,4a-diaza-s-indacene], the “detection in living cells” value in series [1] is given as “not detected”.
Consider `C=C(C)[C@@H]1CC[C@]2(C(=O)NCCCNC(=O)OC(C)(C)C)CC[C@]3(C)[C@H](CC[C@@H]4[C@@]5(C)CC[C@H](OC(=O)CC(C)(C)C(=O)O)C(C)(C)[C@@H]5CC[C@]43C)[C@@H]12` [Compound 8, 4-{[(3β)-28-({3-[(Tert-butoxycarbonyl)amino]propyl}amino)-28-oxolup-20(29)-ene-3--yl]oxy}-2,2-dimethyl-4-oxobutanoic acid], for which the IC50 was 8.18 µM in series [2]; 9.24 µM in series [3]; 19.2 µM in [4]; 13.3 µM in [5]; 18.8 µM in [6]; 13.2 µM in [7]. The IC50 is 21.6 µM in series [8]; 17.2 µM in series [9]; 23.1 µM in series [10]; 21.5 µM in series [11]; 37.8 µM in [16]. Moreover, in [12], the “fraction of proliferating BrDU positive CCRF-CEM cells (in words)” value (from here on “fraction”) is “reduced the fraction of proliferating BrDU positive CCRF-CEM cells”. Besides, the “RNA synthesis by BrU (in words)” value in series [13] is recorded as “stalled RNA synthesis”. For the same compound, the “CA forms identified in released viruses (CA-SP1 processing)” value (shortened to “CA forms identified in released viruses”) in series [14] is on record as “not only fully processed p24 CA, but also p25 CA-SP1 protein”. In [15], the “cytotoxic effect in the cell line panel (in words)” value (“cytotoxic effect” below) is recorded as “medium cytotoxicity”.
In the case of `C=C(C)[C@@H]1CC[C@]2(C(=O)NCCCNC3=C4C=CC=[N+]4[B-](F)(F)n4cccc43)CC[C@]3(C)[C@H](CC[C@@H]4[C@@]5(C)CC[C@H](OC(=O)CC(C)(C)C(=O)O)C(C)(C)[C@@H]5CC[C@]43C)[C@@H]12` [Compound 10, 4-{[(3β)-28-{[N-(4,4-Difluoro-4-bora-3a,4a-diaza-s-indacene-8-yl)-3-aminopropyl]amino}-28-oxolup-20(29)-ene-3-yl]oxy}-2,2-dimethyl-4-oxobutanoic acid], the IC50 in [2] came to 2.92 µM; in [3], 7 µM; in series [4], 23.2 µM; in series [5], 12.2 µM; in series [6], 13.6 µM; in series [7], 7.92 µM. Further, the IC50 is 8.8 µM in series [8]; 12.4 µM in series [9]; 14.1 µM in series [10]; 15.5 µM in series [11]; less than 10 µM in [17] (setting [18]); 8.4 µM in [17]. In series [16], this compound returned an IC50 greater than 40 µM. In addition, in series [12], the “fraction” value was “reduced the fraction of proliferating BrDU positive CCRF-CEM cells”. For the same compound, the “RNA synthesis by BrU (in words)” value in series [13] was “stalled RNA synthesis”. Further, the “CA forms identified in released viruses” value in series [14] was “not only fully processed p24 CA, but also p25 CA-SP1 protein”. Also, in [15], the “cytotoxic effect” value was “medium cytotoxicity”.
As for `C=C(C)[C@@H]1CC[C@]2(C(=O)N3CCN(CCN)CC3)CC[C@]3(C)[C@H](CC[C@@H]4[C@@]5(C)CC[C@H](OC(=O)CC(C)(C)C(=O)O)C(C)(C)[C@@H]5CC[C@]43C)[C@@H]12` [Compound 17, 4-{[(3β)-28-[4-(2-Aminoethyl)piperazine-1-yl]-28-oxolup-20(29)-ene-3-yl]oxy}-2,2-dimethyl-4-oxobutanoic acid hydrochloride], the IC50 in series [2] is 5.76 µM; in series [3] it was greater than 50 µM; in series [4], greater than 50 µM; in [5], greater than 50 µM; in [6], greater than 50 µM; in series [7], greater than 50 µM. Further, the IC50 in series [8] is greater than 50 µM; in [9], 44.6 µM; in [10] it was greater than 50 µM; in [11], greater than 50 µM; in [17] (setting [18]) it was less than 10 µM; in [17], 7.6 µM. In series [16], this compound came in with an IC50 greater than 40 µM. In addition, the “RNA synthesis by BrU (in words)” value in [13] was “stalled RNA synthesis”. The “CA forms identified in released viruses” value in series [14] is “not only fully processed p24 CA, but also p25 CA-SP1 protein”. Besides, in series [15], the “cytotoxic effect” value is “inactive”.
Take `C=C(C)[C@@H]1CC[C@]2(C(=O)N3CCN(CCNC4=C5C=CC=[N+]5[B-](F)(F)n5cccc54)CC3)CC[C@]3(C)[C@H](CC[C@@H]4[C@@]5(C)CC[C@H](OC(=O)CC(C)(C)C(=O)O)C(C)(C)[C@@H]5CC[C@]43C)[C@@H]12` [Compound 18, 4-{[(3β)-28-{4-[N-(4,4-Difluoro-4-bora-3a,4a-diaza-s-indacene-8-yl)-2-aminoethyl]piperazine-1-yl}-28-oxolup-20(29)-ene-3-yl]oxy}-2,2-dimethyl-4-oxobutanoic acid]: the IC50 is 8.61 µM in [2]; greater than 50 µM in series [3]; greater than 50 µM in [4]; greater than 50 µM in series [5]; 47.8 µM in series [6]; 30.8 µM in series [7]. Besides, the IC50 in [8] was 45.5 µM; in [9], greater than 50 µM; in [10] it was greater than 50 µM; in series [11], greater than 50 µM; in [17] (setting [18]) it was less than 10 µM; in [17] it was 7.1 µM. The compound also had an IC50 in [16] greater than 40 µM. The “fraction” value in series [12] is “increased the percentage of cells incorporating BrDU”. Besides, the “RNA synthesis by BrU (in words)” value in [13] is “increased the percentage of BrU positive cells”. For the same compound, in series [14], the “CA forms identified in released viruses” value is recorded as “not only fully processed p24 CA, but also p25 CA-SP1 protein”. Besides, the “cytotoxic effect” value in series [15] was “inactive”.

(Values after article PMC8472287, “Betulinic Acid Decorated with Polar Groups and Blue Emitting BODIPY Dye: Synthesis, Cytotoxicity, Cell-Cycle Analysis and Anti-HIV Profiling” (Biomedicines, 2021).)
